Data: patent publication US20060229358A1, “Pharmaceutical composition containing flavonoids” (Taipei Medical University, priority 2005, published 2006)

Tests used:
[1] = tested on: OVA-sensitized and challenged BALB/c mice, methacholine-induced Penh; assay: Airway hyperresponsiveness in vivo, Penh by whole-body plethysmography (Assay III); set-up: species or system mouse; conditions: i.p., FIG. 3A
Experimental: (§1) Sensitization, airway challenge, and allergen provocation was carried out as described by Kanehiro et al with some modifications. The female BALB/c mice from 8 to 12 week of age were obtained from National Laboratory Animal Center (Taiwan), and maintained on diets free of ovalbumin (OVA). Mice were sensitized by an intraperitoneal (i.p.) injection of 20 μg of OVA emulsified in 2.25 mg aluminum hydroxide gel in a total volume of 100 μl on days 0 and 14. For comparison, some mice were not sensitized, but received sham injection. All mice were challenged via the airway by OVA (1% in saline) for 30 min on days 28, 29, and 30 by ultrasonic nebulization. […] AHR was assessed on day 73 (48 h after 1% OVA provocation) for each group. […] The AHR was measured in unrestrained animals by barometric plethysmography using a whole-body plethysmograph (WBP) (Buxco, Troy, N.Y., USA). Mice were placed into the main chamber of the WBP and nebulized first with phosphate buffer solution (PBS), then with increasing doses (6.25-50 mg/ml) of methacholine (MCh) for 3 min for each nebulization, followed by readings of breathing parameters for 3 min after each nebulization with determination of enhanced pause (Penh) values. […] The number of inflammatory cells was counted using a hemacytometer (Hausser Sci., Horsham, Pa., USA). […]

[2] = tested on: OVA-induced contractions of sensitized guinea pig trachea; assay: Cumulative OVA-induced contractions of isolated sensitized trachea in vitro (Assay IV); conditions: FIG. 4
Excerpt: The guinea pigs were ready for use after day 25 [20]. Under a protocol approved by the Animal Care and Use Committee of Taipei Medical University, the tracheae of guinea pigs (Hartley) were sacrificed and removed therefrom. The tracheae were carefully trimmed off the excessive surrounding tissues and cut into six segments. Each segment consisted of three cartilage rings. All segments were cut open opposite the trachealis. […] The composition of the normal Krebs solution was (mM): […] The tissues were suspended in normal Krebs solution under an initial tension of 1.5 g and allowed to equilibrate for at least 1 h with washing at 15-min intervals. After the tissues were precontracted with KCl (60 mM) and washed with normal Krebs solution, OVA (0.1-100 μg/ml) was cumulatively added, and contractions were allowed to reach a steady state at each concentration. […] The tension of precontraction induced by KCl before experiment was set as 100%.

[3] = tested on: inflammatory cells in BALF of OVA-sensitized BALB/c mice; assay: Inflammatory cells in BALF of OVA-sensitized mice (Assay III); assay type: in vivo, mouse; conditions: FIG. 3B
Experimental: as §1

[4] = tested on: cytokines (IL-2, IL-4, IL-5, TNF-α, IFN-γ) in BALF of OVA-sensitized BALB/c mice; assay: Cytokines in BALF of OVA-sensitized mice (Assay III); assay type: in vivo, mouse; conditions: FIG. 3C
Experimental: as §1

[5] = tested on: high affinity rolipram binding sites (HARBS, PDE4H); assay: Binding to particulate HARBS of whole brain, displacement of [3H]-rolipram (Assay II); set-up: species or system guinea pig; conditions: HARBS 50% binding concentration over PDE4 IC50

| SMILES | Penh values compared with non-sensitized mice ([1]; 3~30 μmol/kg) | Penh values induced by 50 mg/ml MCh ([1]; 10 and 30 μmol/kg, sensitized mice) | OVA (both 10 and 100 μg/ml)-induced contractions ([2]; 30 μM preincubated 15 min) | OVA (100 μg/ml)-induced contractions ([2]; 3~30 μM preincubated 15 min, standardized by 60 mM KCl) | enhancement of eosinophils in BALF ([3]; 3 μmol/kg i.p., compared with control group) | enhancement of total inflammatory cells, macrophages, lymphocytes, neutrophils and eosinophils in BALF ([3]; 10 and 30 μmol/kg i.p.) | level of IL-5 in BALF ([4]; 3 and 10 μmol/kg i.p.) | enhancement of IL-2, IL-4, IL-5, TNF-α and IFN-γ levels in BALF ([4]; 3~30 μmol/kg, i.p.) | PDE4H/PDE4L ratio [5] |
| --- | --- | --- | --- | --- | --- | --- | --- | --- | --- |
| COc1ccc(C2CC(=O)c3c(O)cc(O)cc3O2)cc1O (stereo not drawn) [Hesperetin] | not significantly different | significantly suppressed | significantly antagonized | antagonized | significantly suppressed | significantly suppressed | not suppressed | significantly suppressed | – |
| COc1cc(O)c2c(=O)c(-c3ccc(O)cc3)coc2c1 [Prunetin] | – | – | – | – | – | – | – | – | greater than 5 |
